One series deals with A. baumannii ATCC19606. Description: microbe, parasite or virus in culture. Conditions: for MIC A. baumannii, 12.5% MHB / MIC A. baumannii, Full MHB: A. baumannii ATCC19606, 16–20 h at 37 °C; for MIC A. baumannii, 12.5% MHB: 12.5% Müller–Hinton medium; for MIC A. baumannii, Full MHB: full Müller–Hinton medium; for MIC A. baumannii ATCC19606: supplement CSV. In outline: (§1)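 Read-out was visible growth after MTT addition, the MIC being the lowest inhibitory peptide concentration. Bacteria grown to log phase in LB were exposed in MH medium to peptide from 64 μg/mL in twofold dilutions for 15-18h at 37°C.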

The next series has as its system E. coli W3110. Briefly: microbe, parasite or virus in culture. The note with it: for MIC E. coli, 12.5% MHB / MIC E. coli, Full MHB: E. coli W3110, 16–20 h at 37 °C, broth microdilution; for MIC E. coli, 12.5% MHB: 12.5% Müller–Hinton medium; for MIC E. coli, Full MHB: full Müller–Hinton medium; for MIC E. coli W3110: supplement CSV. The essentials:
as §1
In general terms: In broth dilution the organism is exposed to a series of concentrations in liquid medium.

The test system of a further series is K. pneumoniae NCTC 418. Description: microbe, parasite or virus in culture. Conditions: for MIC K. pneumoniae, 12.5% MHB / MIC K. pneumoniae, Full MHB: K. pneumoniae NCTC 418, 16–20 h at 37 °C; for MIC K. pneumoniae, 12.5% MHB: 12.5% Müller–Hinton medium; for MIC K. pneumoniae, Full MHB: full Müller–Hinton medium; for MIC K. pneumoniae NCTC418: supplement CSV. The essentials: as §1

The subject of a further series is P. aeruginosa PAO1. Briefly: microbe, parasite or virus in culture. Conditions: for MIC P. aeruginosa, 12.5% MHB / MIC P. aeruginosa, Full MHB: P. aeruginosa PAO1, 16–20 h at 37 °C; for MIC P. aeruginosa, 12.5% MHB: 12.5% Müller–Hinton medium; for MIC P. aeruginosa, Full MHB: full Müller–Hinton medium; for MIC P. aeruginosa PAO1: supplement CSV. The essentials: as §1

Another series relates to S. aureus COL (MRSA). Briefly: microbe, parasite or virus in culture. Conditions: for MIC S. aureus, 12.5% MHB / MIC S. aureus, Full MHB: S. aureus COL (MRSA), 16–20 h at 37 °C; for MIC S. aureus, 12.5% MHB: 12.5% Müller–Hinton medium; for MIC S. aureus, Full MHB: full Müller–Hinton medium; for MIC S. aureus COL (MRSA): supplement CSV. In outline: as §1
The subject of the next series is human red blood cells. Briefly: Hemolysis assay, minimum hemolytic concentration. The note with it: for Haemolysis on hRBC, MHC: 2.5% human red blood cells (final) in 10 mM phosphate, 150 mM NaCl, pH 7.4, 25 °C, 4 h, visual inspection; for MHC human red blood cells: supplement CSV.

≈ marks a conversion by molar mass, not a printed value. Non-standard residues stand in square brackets, D forms with d. Residues, ends and D or L forms follow the SMILES beside them. No end group written: not given here.

With `CC[C@H](C)[C@H](NC(=O)[C@H](CCCNC(=N)N)NC(=O)[C@H](CCCNC(=N)N)NC(=O)[C@@H]1CCCN1C(=O)[C@@H]1CCCN1C(=O)[C@H](CCCNC(=N)N)NC(=O)[C@@H]1CCCN1C(=O)[C@@H](CCCNC(=N)N)NC(=O)[C@@H]1CCCN1C(=O)[C@H](CC(C)C)NC(=O)[C@H](Cc1ccc(O)cc1)NC(=O)[C@@H]1CCCN1C(=O)[C@@H]1CCCN1C(=O)[C@H](CCCCN)NC(=O)[C@H](CC(=O)O)NC(=O)[C@@H](N)C(C)C)C(=O)N[C@@H](Cc1ccc(O)cc1)C(=O)N[C@@H](CC(N)=O)C(=O)N[C@@H](CCCNC(=N)N)C(N)=O` [DR9-Onc] (H-VDKPPYLP[dR]PRPPRRIYNR-NH2), in the series on A. baumannii ATCC19606, the “MIC A. baumannii, 12.5% MHB” value is 8 µg/mL (≈ 3.35 µM) and the “MIC A. baumannii, Full MHB” value was over 64 µg/mL. The “MIC A. baumannii ATCC19606” value against A. baumannii ATCC19606 (12.5% MH pH 7.4) was 8 µg/mL (≈ 3.35 µM). For the same molecule, the “MIC A. baumannii ATCC19606” value with A. baumannii ATCC19606 (full MH pH 7.4) was over 64 µg/mL. Also, in the series with E. coli W3110, the “MIC E. coli, 12.5% MHB” value is 4 µg/mL (≈ 1.67 µM) and the “MIC E. coli, Full MHB” value was found to be 16 µg/mL (≈ 6.69 µM). The “MIC E. coli W3110” value against E. coli W3110 (12.5% MH pH 7.4) came to 4 µg/mL (≈ 1.67 µM). In addition, the “MIC E. coli W3110” value against E. coli W3110 (full MH pH 7.4) was 16 µg/mL (≈ 6.69 µM). Besides, in the series with K. pneumoniae NCTC 418, the “MIC K. pneumoniae, 12.5% MHB” value is 4 µg/mL (≈ 1.67 µM) and the “MIC K. pneumoniae, Full MHB” value came to 16 µg/mL (≈ 6.69 µM). Further, the “MIC K. pneumoniae NCTC418” value with K. pneumoniae NCTC 418 (12.5% MH pH 7.4) amounted to 4 µg/mL (≈ 1.67 µM). For the same molecule, the “MIC K. pneumoniae NCTC418” value with K. pneumoniae NCTC 418 (full MH pH 7.4) is 16 µg/mL (≈ 6.69 µM). Besides, in the series on P. aeruginosa PAO1, the “MIC P. aeruginosa, 12.5% MHB” value was 32 µg/mL (≈ 13.4 µM) and the “MIC P. aeruginosa, Full MHB” value was over 64 µg/mL. Further, the “MIC P. aeruginosa PAO1” value with P. aeruginosa PAO1 (12.5% MH pH 7.4) was 32 µg/mL (≈ 13.4 µM). In addition, the “MIC P. aeruginosa PAO1” value against P. aeruginosa PAO1 (full MH pH 7.4) was over 64 µg/mL. Further, in the series with S. aureus COL (MRSA), the “MIC S. aureus, 12.5% MHB” value is recorded as >64 / >64 μg/mL and the “MIC S. aureus, Full MHB” value is reported as >64 / >64 μg/mL. For the same molecule, in the series on S. aureus COL (MRSA) (12.5% MH pH 7.4), the “MIC S. aureus COL (MRSA)” value was over 64 µg/mL. The “MIC S. aureus COL (MRSA)” value in the series on S. aureus COL (MRSA) (full MH pH 7.4) was over 64 µg/mL. Further, in the series on human red blood cells, the “Haemolysis on hRBC, MHC” value was over 1000 µg/mL and the “MHC human red blood cells” value was over 1000 µg/mL.

As for “VDKPPYLPRPRPPRRIYNR [sr11Cterm-Onc] (VDKPPYLPRPRPPRRIYNR-NH2; also: residues 9-19 stereorandomized (1:1 L/D mixture))”, in the series on A. baumannii ATCC19606, the “MIC A. baumannii, 12.5% MHB” value amounted to 4 µg/mL and the “MIC A. baumannii, Full MHB” value came out at 32 µg/mL. The “MIC A. baumannii ATCC19606” value in the series with A. baumannii ATCC19606 (12.5% MH pH 7.4) worked out at 4 µg/mL. Moreover, the “MIC A. baumannii ATCC19606” value with A. baumannii ATCC19606 (full MH pH 7.4) is 32 µg/mL. Moreover, in the series with E. coli W3110, the “MIC E. coli, 12.5% MHB” value was 4 µg/mL and the “MIC E. coli, Full MHB” value came out at 16 µg/mL. Moreover, the “MIC E. coli W3110” value against E. coli W3110 (12.5% MH pH 7.4) was determined as 4 µg/mL. Moreover, in the series on E. coli W3110 (full MH pH 7.4), the “MIC E. coli W3110” value was 16 µg/mL. Moreover, in the series with K. pneumoniae NCTC 418, the “MIC K. pneumoniae, 12.5% MHB” value was determined as 4 µg/mL and the “MIC K. pneumoniae, Full MHB” value was found to be 16 µg/mL. Also, in the series on K. pneumoniae NCTC 418 (12.5% MH pH 7.4), the “MIC K. pneumoniae NCTC418” value was found to be 4 µg/mL. Moreover, the “MIC K. pneumoniae NCTC418” value in the series with K. pneumoniae NCTC 418 (full MH pH 7.4) was 16 µg/mL. Moreover, in the series with P. aeruginosa PAO1, the “MIC P. aeruginosa, 12.5% MHB” value came to 8 µg/mL and the “MIC P. aeruginosa, Full MHB” value was over 64 µg/mL. In addition, the “MIC P. aeruginosa PAO1” value against P. aeruginosa PAO1 (12.5% MH pH 7.4) came out at 8 µg/mL. Also, the “MIC P. aeruginosa PAO1” value against P. aeruginosa PAO1 (full MH pH 7.4) was over 64 µg/mL. Besides, in the series on S. aureus COL (MRSA), the “MIC S. aureus, 12.5% MHB” value is listed as >64 / 64 μg/mL and the “MIC S. aureus, Full MHB” value is given as >64 / 64 μg/mL. Moreover, the “MIC S. aureus COL (MRSA)” value in the series with S. aureus COL (MRSA) (12.5% MH pH 7.4) is 64 µg/mL. The “MIC S. aureus COL (MRSA)” value in the series on S. aureus COL (MRSA) (full MH pH 7.4) is over 64 µg/mL. Also, in the series with human red blood cells, the “Haemolysis on hRBC, MHC” value was over 1000 µg/mL and the “MHC human red blood cells” value was over 1000 µg/mL.

These data come from paper PMC11571207, “Stereorandomized Oncocins with Preserved Ribosome Binding and Antibacterial Activity” (Journal of Medicinal Chemistry, 2024).
